{"source": "patent US10155027B2", "about": "“Alpha-galactosidase A and 1-deoxygalactonojirimycin co-formulation for the treatment of fabry disease” (Amicus Therapeutics, Inc., priority 2012, dated 2018)", "key": {"α-Gal A": {"target": "T1, α-Gal A (Homo sapiens, UniProt P06280)", "T1 construct": "purchased JCR Pharmaceuticals Co. Ltd, (Japan) JR-051; host or cells: CHO cells", "T1 sequence (P06280 32-429)": "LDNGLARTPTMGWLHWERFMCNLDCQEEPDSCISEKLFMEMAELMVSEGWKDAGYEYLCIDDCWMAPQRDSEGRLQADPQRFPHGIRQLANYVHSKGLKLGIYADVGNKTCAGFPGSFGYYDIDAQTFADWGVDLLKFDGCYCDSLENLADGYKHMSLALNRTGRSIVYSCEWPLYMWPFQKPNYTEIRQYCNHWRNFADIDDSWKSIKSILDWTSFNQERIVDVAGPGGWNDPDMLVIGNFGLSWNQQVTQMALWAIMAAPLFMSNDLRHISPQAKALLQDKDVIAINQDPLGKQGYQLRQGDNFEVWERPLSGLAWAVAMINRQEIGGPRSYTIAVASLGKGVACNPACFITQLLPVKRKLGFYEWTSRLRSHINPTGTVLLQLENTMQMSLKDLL", "assay": "α-Gal A stability in whole blood ex vivo at 37° C.", "assay_type": "in vitro ADME", "conditions": "5 nM and 50 nM α-Gal A formulated with 10 μM DGJ", "protocol": "The effect of co-formulating α-Gal A with DGJ on α-Gal A stability in blood ex vivo was examined. Time-dependent loss of α-Gal A activity in whole blood at 37° C. was determined. 5 nM and 50 nM α-Gal A was formulated with or without 10 μM DGJ."}, "[1]": {"conditions": "predicted exposure at 0.3 mg/kg IV"}, "[2]": {"conditions": "predicted exposure at 10.0 mg/kg IV"}}, "note": "Where a name gives a salt, the structure may show the parent alone. Read-outs that look alike come from different tables or passages of the source."}
{"smiles": "OC[C@H]1NC[C@H](O)[C@@H](O)[C@H]1O", "note": "[migalastat HCl, (2R,3S,4R,5S)-2-(hydroxymethyl) piperdine-3,4,5-triol]", "values": [{"measurement": "Fold Cover to AUC from human oral 1250 mg, Max", "setting": "[1]", "value": 62}, {"measurement": "Fold Cover to AUC from human oral 1250 mg, Median", "setting": "[1]", "value": 39}, {"measurement": "Fold Cover to AUC from human oral 1250 mg, Min", "setting": "[1]", "value": 15.5}, {"measurement": "Fold Cover to Cmax from human oral 1250 mg, Max", "setting": "[1]", "value": 61}, {"measurement": "Fold Cover to Cmax from human oral 1250 mg, Median", "setting": "[1]", "value": 36}, {"measurement": "Fold Cover to Cmax from human oral 1250 mg, Min", "setting": "[1]", "value": 2.6}, {"measurement": "Fold Cover to AUC from human oral 1250 mg, Max", "setting": "[2]", "value": 1.89}, {"measurement": "Fold Cover to AUC from human oral 1250 mg, Median", "setting": "[2]", "value": 1.19}, {"measurement": "Fold Cover to AUC from human oral 1250 mg, Min", "setting": "[2]", "value": 0.47}, {"measurement": "Fold Cover to Cmax from human oral 1250 mg, Max", "setting": "[2]", "value": 1.81}, {"measurement": "Fold Cover to Cmax from human oral 1250 mg, Median", "setting": "[2]", "value": 1.07}, {"measurement": "Fold Cover to Cmax from human oral 1250 mg, Min", "setting": "[2]", "value": 0.08}, {"measurement": "effect on α-Gal A stability in whole blood", "setting": "α-Gal A", "value": "stabilized the enzyme and prevented enzyme inactivation"}]}
